This passage reports DC50 and IC50 results from patent US20220242846A1, “ISOINDOLINONE COMPOUNDS” (Monte Rosa Therapeutics AG, priority 2019, published 2022).

One test deals with GSPT1 (Homo sapiens, UniProt P15170+Q96SW2). Kind of test: Immunofluorescence assay for GSPT1 degradation in CAL-51 cells. It is filed as cell-based. Also on record: CAL-51 cells were purchased from DSMZ (cat. Number ACC302); endogenous in cells; host or cells: CAL-51 (DSMZ ACC302). To be noted: compound treatment 6 hours. Here is the method: CAL-51 cells were purchased from DSMZ (cat. Number ACC302), sub-cultured in 90% Dulbecco's MEM (4.5 g/L glucose, Gibco 11965) +10% heat inactivated FBS (BioConcept, 2-01F136I) and incubated at 37° C., 5% CO2. For the assay, imaging microtiterplate Cell Carrier 96 Ultra (Perkin Elmer 6055302) were pre-coated with Fibronectin (Sigma F085, 300 at 0.2 μg/ml) in PBS (1000, Gibco 14190) for 45 min at room temperature, rinsed with PBS and CAL-51 cells (30K cells/well) were plated and let to adhere overnight. Cells were treated with compounds typically using a serial dilution ranging from 30 μM to 0.1 nM for 6 hours. Compounds were stored at 10 mM DMSO stocks. Vehicle (DMSO), positive (CC-885, 10 μM) and rescue controls (positive control plus 0.2 μM bortezomib) were also included at this stage. Cells were subsequently rinsed with PBS and fixed in 10% Formalin solution (50 μl, Sigma HT5011)) for 20 mins at room temperature. Following three consecutive PBS washes (100 μl), cells were permeabilized in 0.1% Triton X-100 in PBS (Sigma 93443, 50 μl) for 15 mins at room temperature. Following three further PBS washes, 50 μl blocking buffer (1% BSA, Sigma A4503, in PBS) was added for 45 min for signal-to-noise reduction. Primary antibody (human GSPT1, Sigma HPA052488) was diluted in blocking buffer (dil. 1/300, 35 μl/well) and incubated with the cells overnight at 4° C. After three PBS washes, Alexa-fluor 488 coupled secondary antibodies (Invitrogen, A32731, dil. 1/1000), Alexa-fluor 647-Phalloïdin (Invitrogen, A22287, dil. 1/200) and DAPI (Thermo, #62248, dil.1/1000) were diluted in blocking buffer and incubated with the samples for 2 hours at room temperature. After three final PBS washes, samples were conserved in 1000 PBS in the dark, until measurement. Image acquisition was performed on the Operetta High-Content Imager (Perkin-Elmer). Fluorescence intensity of Alexa-Fluor 488 (GSPT1), Alexa-Fluor 647 (Actin) and DAPI (Nucleus) were measured. For the determination of GSPT1 DC50 values, a custom algorithm implemented in the PerkinElmer image analysis software Harmony-Acapella® was developed. After user-defined setting of adjustment parameters, the analysis was run identically without human intervention for all image fields. DAPI staining of the nuclei was used to determine the location of cells using standard nuclei detection modules. Segmentation artifacts were removed by threshold-based filters for area, roundness and intensity. The outline of the cells was determined analogously from the sum of the normalized, smoothed DAPI and Actin channel, starting from each nucleus. The Alexa-Fluor 488 (GSPT1) signal intensity in each cell was finally measured, in order to obtain a Mean intensity per cell. GSPT1 degradation (DC50) was calculated after normalization to controls and data import in CDD vault Database, using non-linear regression. Activity for GSPT1 Degradation Table 3 assigns each compound a code indicating the ability for GSPT1 degradation: A, B or C. According to the code, A represents a DC50 value of ≤100 nM, B represents a DC50 value >100 nM and ≤300 nM and C represents a DC50 value of >300 nM.

Test [1] addresses T1, Full length wild-type cereblon CRBN (Homo sapiens, UniProt Q96SW2).
T1 construct: Full length wild-type cereblon CRBN (80.0 nM, 10 μL) was incubated in assay buffer
Kind of test: Fluorescence polarization (FP) assay indicating cereblon binding. The settings on record: CRBN 80.0 nM, fluorescent probe 5 nM, FP measured after 12 hours; read-out: rFP IC50. An excerpt: Protocol for Fluorescent Polarization Assay
Compound activity was monitored in a fluorescence polarization (FP) homogeneous assay using 1-[5-({2-[2-(2-{[2-(2,6-dioxopiperidin-3-yl)-1,3-dioxo-2,3-dihydro-1H-isoindol-4-yl]oxy}acetamido)ethoxy]ethyl}carbamoyl)pentyl]-3,3-dimethyl-2-[(1E,3E)-5-[(2E)-1,3,3-trimethyl-5-sulfo-2,3-dihydro-1H-indol-2-ylidene]penta-1,3-dien-1-yl]-3H-indol-1-ium-5-sulfonate as a fluorescent probe. Unless otherwise stated, all reagents were purchased from Sigma Aldrich. Enzymatic reactions were conducted in Perkin-Elmer Black 384 well ProxiPlate Plus (catalogue no. 6008269) in 10 μL total volume. Full length wild-type cereblon CRBN (80.0 nM, 10 μL) was incubated in assay buffer containing 20 mM HEPES (pH 8.0), […], 0.5 mM TCEP and 0.05% Tween 20 in the presence or absence of compound (300 nL). Inhibitors were stored as 10 mM DMSO stocks in an inert environment (low humidity, dark, low oxygen, room temperature) using the Storage Pod System. Compounds and DMSO were dispensed using the Echo E5XX (Labcyte Inc. USA) to give concentrations from 300 to 0.937 or 3000 to 9.3 nM in a 12 data point curve. […] Following incubation at room temperature for […], the assay was initiated by dispensing the probe to a final concentration of 5 nM (2.5 nL of a 20 μM stock) using the Echo E5XX. FP was measured after a period of 12 hours using a Pherastar plate reader (BMG Labtech, Germany) exciting at 590 nm and measuring the amount of parallel and perpendicular light at 675 nm. The FP signal was subsequently normalized to the no-compound control (i.e., DMSO). Analysis and IC50 values were derived using Dotmatics (Dotmatics UK) software.

The mark [2] stands for this setting: read-out: Code: activity for GSPT1 degradation (DC50).

Where two headings read alike, the source gives them in different places.

T1 sequence (Q96SW2 whole entry): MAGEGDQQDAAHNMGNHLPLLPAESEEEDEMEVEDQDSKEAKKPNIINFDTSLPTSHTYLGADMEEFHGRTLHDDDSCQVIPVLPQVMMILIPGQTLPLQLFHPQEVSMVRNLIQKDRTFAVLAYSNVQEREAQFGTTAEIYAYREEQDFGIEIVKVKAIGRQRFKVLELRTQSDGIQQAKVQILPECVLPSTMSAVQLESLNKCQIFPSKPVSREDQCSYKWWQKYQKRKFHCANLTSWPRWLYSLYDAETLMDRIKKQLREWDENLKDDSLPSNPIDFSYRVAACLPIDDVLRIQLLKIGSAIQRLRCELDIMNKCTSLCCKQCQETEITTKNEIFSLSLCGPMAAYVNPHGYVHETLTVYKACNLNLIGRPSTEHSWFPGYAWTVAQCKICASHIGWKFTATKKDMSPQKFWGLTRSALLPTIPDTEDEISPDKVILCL
Chain of GSPT1 (P15170 whole entry): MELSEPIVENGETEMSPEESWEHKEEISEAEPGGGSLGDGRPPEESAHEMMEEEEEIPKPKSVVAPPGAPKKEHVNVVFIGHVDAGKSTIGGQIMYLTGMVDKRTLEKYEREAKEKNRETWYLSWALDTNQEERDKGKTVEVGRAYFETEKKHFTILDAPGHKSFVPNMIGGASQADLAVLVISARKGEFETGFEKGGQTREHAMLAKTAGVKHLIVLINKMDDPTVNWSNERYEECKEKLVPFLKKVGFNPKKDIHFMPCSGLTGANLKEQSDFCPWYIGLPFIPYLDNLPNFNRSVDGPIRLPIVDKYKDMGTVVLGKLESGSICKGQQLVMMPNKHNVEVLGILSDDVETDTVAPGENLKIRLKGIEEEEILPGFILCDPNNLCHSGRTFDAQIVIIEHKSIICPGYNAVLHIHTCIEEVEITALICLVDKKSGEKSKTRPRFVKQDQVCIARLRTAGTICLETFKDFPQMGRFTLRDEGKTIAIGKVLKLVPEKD
Chain of GSPT1 (Q96SW2 whole entry): as the sequence (Q96SW2 whole entry) above
Chain of GSPT1 (Q16531 2-1140 partner limits assumed): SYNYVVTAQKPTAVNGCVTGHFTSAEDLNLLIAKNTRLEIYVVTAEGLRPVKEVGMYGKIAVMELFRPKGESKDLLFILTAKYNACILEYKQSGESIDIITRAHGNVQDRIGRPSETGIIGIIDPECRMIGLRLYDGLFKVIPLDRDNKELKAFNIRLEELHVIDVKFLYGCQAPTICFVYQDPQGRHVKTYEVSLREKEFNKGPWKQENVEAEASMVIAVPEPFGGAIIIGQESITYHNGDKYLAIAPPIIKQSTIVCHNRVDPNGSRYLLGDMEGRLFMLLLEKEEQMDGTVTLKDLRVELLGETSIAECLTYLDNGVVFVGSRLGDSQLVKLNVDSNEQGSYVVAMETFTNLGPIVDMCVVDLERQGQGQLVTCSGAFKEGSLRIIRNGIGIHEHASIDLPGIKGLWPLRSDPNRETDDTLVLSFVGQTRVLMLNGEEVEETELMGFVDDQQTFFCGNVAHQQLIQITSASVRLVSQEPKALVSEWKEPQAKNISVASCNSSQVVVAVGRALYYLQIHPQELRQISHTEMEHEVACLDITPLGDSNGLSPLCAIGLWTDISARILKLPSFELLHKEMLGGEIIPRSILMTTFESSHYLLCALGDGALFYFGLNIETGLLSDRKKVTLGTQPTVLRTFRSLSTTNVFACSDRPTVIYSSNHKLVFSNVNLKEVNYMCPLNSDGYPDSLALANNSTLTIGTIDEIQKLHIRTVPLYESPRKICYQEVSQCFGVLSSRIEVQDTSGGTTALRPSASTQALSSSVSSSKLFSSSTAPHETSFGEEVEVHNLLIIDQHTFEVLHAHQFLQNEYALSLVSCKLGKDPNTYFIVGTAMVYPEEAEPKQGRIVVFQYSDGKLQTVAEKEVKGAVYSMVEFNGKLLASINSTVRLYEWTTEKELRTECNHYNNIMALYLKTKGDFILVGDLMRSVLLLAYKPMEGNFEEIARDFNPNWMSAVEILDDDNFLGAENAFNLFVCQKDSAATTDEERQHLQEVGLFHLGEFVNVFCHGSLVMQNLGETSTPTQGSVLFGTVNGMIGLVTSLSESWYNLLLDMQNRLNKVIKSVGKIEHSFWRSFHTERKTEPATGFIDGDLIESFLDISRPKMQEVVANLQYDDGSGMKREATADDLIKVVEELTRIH

Turning to `Cc1c(Cl)cc(NC(=O)NCc2ccc3c(c2)C(=O)N(C2CCC(=O)NC2=O)C3)cc1N(C)C` (centres unmarked) [Compound 129], the DC50 at GSPT1 (setting [2]) is ≤ 100 nM. Besides, the IC50 in test [1] is 350 nM.
With `COCCOc1cc(NC(=O)NCc2ccc3c(c2)C(=O)N(C2CCC(=O)NC2=O)C3)cc(Cl)c1C` (centres unmarked) [Compound 125], the DC50 at GSPT1 (setting [2]) was ≤ 100 nM. Further, in test [1], the IC50 worked out at 596 nM.
The corresponding values for `O=C1CCC(N2Cc3ccc(CNC(=O)Nc4ccc(C(F)F)cc4)cc3C2=O)C(=O)N1` (centres unmarked) [Compound 114] are > 300 nM and 443 nM.
The like results for `Cc1ccc(CNC(=O)NCc2ccc3c(c2)C(=O)N(C2CCC(=O)NC2=O)C3)cc1Cl` (centres unmarked) [Compound 152] were, in that order, > 300 nM and 284 nM.
The like results for `O=C1CCC(N2Cc3ccc(CNC(=O)Nc4ccncc4)cc3C2=O)C(=O)N1` (centres unmarked) [Compound 104] were, in that order, > 300 nM and 234 nM.
For `CC(C)(O)c1ccc(NC(=O)NCc2ccc3c(c2)C(=O)N(C2CCC(=O)NC2=O)C3)cc1` (centres unmarked) [Compound 131], the DC50 at GSPT1 (setting [2]) was > 300 nM. Moreover, the IC50 in test [1] is 334 nM.
Turning to `O=C1CCC(N2Cc3ccc(CNC(=O)Nc4cn[nH]c4)cc3C2=O)C(=O)N1` (centres unmarked) [Compound 108], at GSPT1 (setting [2]), the DC50 is > 300 nM. Besides, the IC50 in test [1] was determined as 661 nM.
The corresponding values for `Cc1cc(C)c(NC(=O)NCc2ccc3c(c2)C(=O)N(C2CCC(=O)NC2=O)C3)c(Cl)c1Cl` (centres unmarked) [Compound 100] are > 300 nM and 178 nM.
In the case of `Cn1nccc1-c1cccc(NC(=O)NCc2ccc3c(c2)C(=O)N(C2CCC(=O)NC2=O)C3)c1` (centres unmarked) [Compound 115], the DC50 at GSPT1 (GSPT1 degradation, read-out: DC50) was 299 nM; on GSPT1 (setting [2]), 100 to 300 nM. The IC50 in test [1] is 230 nM.
For the molecule `Cn1ccc(-c2cccc(NC(=O)NCc3ccc4c(c3)C(=O)N(C3CCC(=O)NC3=O)C4)c2)n1` (centres unmarked) [Compound 116], at GSPT1 (setting [2]), the DC50 is > 300 nM. Moreover, the IC50 in test [1] was found to be 139 nM.
`O=C1CCC(N2Cc3ccc(CNC(=O)Nc4cscn4)cc3C2=O)C(=O)N1` (centres unmarked) [Compound 99]: the DC50 on GSPT1 (setting [2]) is > 300 nM. Also, the IC50 in test [1] was determined as 367 nM.
The like results for `Cc1c(Cl)cc(NC(=O)NCc2ccc3c(c2)C(=O)N(C2CCC(=O)NC2=O)C3)cc1C[C@H]1CO[C@@H](C)OC1` (some centres unmarked) [Compound 145] were, in that order, ≤ 100 nM and 741 nM.
The corresponding values for `Cc1ccc(NC(=O)NCc2ccc3c(c2)C(=O)N(C2CCC(=O)NC2=O)C3)cc1OC(F)F` (centres unmarked) [Compound 159] are > 300 nM and 676 nM.
The like results for `O=C1CCC(N2Cc3ccc(CNC(=O)Nc4cccc(OC(=O)CN5CCOCC5)c4)cc3C2=O)C(=O)N1` (centres unmarked) [Compound 110] were, in that order, > 300 nM and 302 nM.
Regarding `Cc1nccn1-c1cccc(NC(=O)NCc2ccc3c(c2)C(=O)N(C2CCC(=O)NC2=O)C3)c1` (centres unmarked) [Compound 113], the DC50 at GSPT1 (setting [2]) is > 300 nM. The IC50 in test [1] amounted to 283 nM.
With `O=C1CCC(N2Cc3ccc(CNC(=O)Nc4cc(Cl)cc(CN5CCOCC5)c4)cc3C2=O)C(=O)N1` (centres unmarked) [Compound 119], the DC50 on GSPT1 (setting [2]) was ≤ 100 nM. Further, the IC50 in test [1] stood at 408 nM.
`O=C1CCC(N2Cc3ccc(CNC(=O)Nc4cc(OC(F)(F)F)ccn4)cc3C2=O)C(=O)N1` (centres unmarked) [Compound 164]: the DC50 at GSPT1 (setting [2]) is > 300 nM. The IC50 in test [1] is 1600 nM.
The like results for `Cc1c(Cl)cc(NC(=O)NCc2ccc3c(c2)C(=O)N(C2CCC(=O)NC2=O)C3)cc1CC(=O)O` (centres unmarked) [Compound 120] were, in that order, > 300 nM and 453 nM.
The like results for `O=C1CCC(N2Cc3ccc(CNC(=O)Nc4nccs4)cc3C2=O)C(=O)N1` (centres unmarked) [Compound 92] were, in that order, > 300 nM and 304 nM.
As for `Cc1cc(C)c(NC(=O)NCc2ccc3c(c2)C(=O)N(C2CCC(=O)NC2=O)C3)c(C)c1Cl` (centres unmarked) [Compound 107], at GSPT1 (setting [2]), the DC50 was > 300 nM. Also, in test [1], the IC50 was determined as 247 nM.
For `O=C1CCC(N2Cc3ccc(CNC(=O)Nc4cccnc4)cc3C2=O)C(=O)N1` (centres unmarked) [Compound 95], the DC50 at GSPT1 (setting [2]) was > 300 nM. In test [1], the IC50 stood at 432 nM.
The like results for `CN(C)c1ccc(NC(=O)NCc2ccc3c(c2)C(=O)N(C2CCC(=O)NC2=O)C3)cc1` (centres unmarked) [Compound 79] were, in that order, > 300 nM and 317 nM.
Regarding `O=C1CCC(N2Cc3ccc(CNC(=O)Nc4cc[nH]c4)cc3C2=O)C(=O)N1` (centres unmarked) [Compound 98], the DC50 on GSPT1 (setting [2]) is > 300 nM. For the same molecule, in test [1], the IC50 amounted to 404 nM.
The corresponding values for `Cc1c(Cl)cc(NC(=O)NCc2ccc3c(c2)C(=O)N(C2CCC(=O)NC2=O)C3)cc1CN1CCC(N(C)C)CC1` (centres unmarked) [Compound 133] are > 300 nM and 252 nM.
The like results for `Cc1ccc(NC(=O)NCc2ccc3c(c2)C(=O)N(C2CCC(=O)NC2=O)C3)nc1Cl` (centres unmarked) [Compound 137] were, in that order, > 300 nM and 1140 nM.
Turning to `Cc1c(Cl)cc(NC(=O)NCc2ccc3c(c2)C(=O)N(C2CCC(=O)NC2=O)C3)cc1C=O` (centres unmarked) [Compound 156], the DC50 on GSPT1 (setting [2]) was > 300 nM. Also, in test [1], the IC50 was determined as 607 nM.
The like results for `Cc1c(Cl)cc(NC(=O)NCc2ccc3c(c2)C(=O)N(C2CCC(=O)NC2=O)C3)cc1N1CCOCC1` (centres unmarked) [Compound 122] were, in that order, ≤ 100 nM and 657 nM.
The corresponding values for `Cc1c(Cl)cc(NC(=O)NCc2ccc3c(c2)C(=O)N(C2CCC(=O)NC2=O)C3)cc1OCCCN(C)C` (centres unmarked) [Compound 117] are > 300 nM and 152 nM.
The corresponding values for `Nc1cccc(NC(=O)NCc2ccc3c(c2)C(=O)N(C2CCC(=O)NC2=O)C3)c1` (centres unmarked) [Compound 80] are > 300 nM and 515 nM.
As for `O=C1CCC(N2Cc3ccc(CNC(=O)Nc4ccc5c(c4)OCO5)cc3C2=O)C(=O)N1` (centres unmarked) [Compound 153], on GSPT1 (setting [2]), the DC50 was > 300 nM. Also, in test [1], the half-maximal inhibitory concentration (IC50) is 1840 nM.
In the case of `Nc1ccc(NC(=O)NCc2ccc3c(c2)C(=O)N(C2CCC(=O)NC2=O)C3)cc1` (centres unmarked) [Compound 81], on GSPT1 (setting [2]), the half-maximal degradation concentration (DC50) is > 300 nM. Besides, the IC50 in test [1] was 919 nM.
As for `Cc1c(Cl)cc(NC(=O)NCc2ccc3c(c2)C(=O)N(C2CCC(=O)NC2=O)C3)cc1CN1CC2CCC(C1)O2` (centres unmarked) [Compound 140], the IC50 in test [1] worked out at 559 nM.
For `Cc1c(Cl)cc(NC(=O)NCc2ccc3c(c2)C(=O)N(C2CCC(=O)NC2=O)C3)cc1CN1CCN2CCC1C2` (centres unmarked) [Compound 154], the IC50 in test [1] turned out to be 688 nM.
